Square brackets hold non-standard residues; d marks the D form. Peptide text beside a SMILES is read from it. * marks the point of attachment. Arg(NO2) = N=C(NCCC[C@H](N)C(=O)O)N[N+](=O)[O-]; X1 = CCOP(=O)(O)N[C@H](C(=O)*)[C@@H](C)CC
Assays:
Interstitial collagenase [1] = target: T1, Interstitial collagenase (Homo sapiens, UniProt P03956); experiment: Assayed against human skin fibroblast Collagenase using the spectrophotometric assay with the thiol ester substrate at pH 6.5.
T1 sequence (P03956 whole entry): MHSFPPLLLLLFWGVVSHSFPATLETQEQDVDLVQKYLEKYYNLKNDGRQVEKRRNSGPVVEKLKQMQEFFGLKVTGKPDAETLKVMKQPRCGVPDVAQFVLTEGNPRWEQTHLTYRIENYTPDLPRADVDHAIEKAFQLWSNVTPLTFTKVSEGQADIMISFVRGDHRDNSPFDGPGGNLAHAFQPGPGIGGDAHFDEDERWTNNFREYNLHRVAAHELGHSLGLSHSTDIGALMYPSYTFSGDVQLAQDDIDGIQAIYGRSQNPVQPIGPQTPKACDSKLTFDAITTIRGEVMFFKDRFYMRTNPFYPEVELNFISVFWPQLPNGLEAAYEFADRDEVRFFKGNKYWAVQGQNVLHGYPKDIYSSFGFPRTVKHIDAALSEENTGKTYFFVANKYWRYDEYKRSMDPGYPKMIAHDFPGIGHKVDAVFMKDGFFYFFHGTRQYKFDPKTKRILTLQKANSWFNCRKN

Collagenase ColA = target: T2, Collagenase ColA (Bacteria, UniProt P43153); experiment: Inhibition of bacterial Collagenase; set-up: species or system Hathewaya histolytica
T2 sequence (P43153 whole entry): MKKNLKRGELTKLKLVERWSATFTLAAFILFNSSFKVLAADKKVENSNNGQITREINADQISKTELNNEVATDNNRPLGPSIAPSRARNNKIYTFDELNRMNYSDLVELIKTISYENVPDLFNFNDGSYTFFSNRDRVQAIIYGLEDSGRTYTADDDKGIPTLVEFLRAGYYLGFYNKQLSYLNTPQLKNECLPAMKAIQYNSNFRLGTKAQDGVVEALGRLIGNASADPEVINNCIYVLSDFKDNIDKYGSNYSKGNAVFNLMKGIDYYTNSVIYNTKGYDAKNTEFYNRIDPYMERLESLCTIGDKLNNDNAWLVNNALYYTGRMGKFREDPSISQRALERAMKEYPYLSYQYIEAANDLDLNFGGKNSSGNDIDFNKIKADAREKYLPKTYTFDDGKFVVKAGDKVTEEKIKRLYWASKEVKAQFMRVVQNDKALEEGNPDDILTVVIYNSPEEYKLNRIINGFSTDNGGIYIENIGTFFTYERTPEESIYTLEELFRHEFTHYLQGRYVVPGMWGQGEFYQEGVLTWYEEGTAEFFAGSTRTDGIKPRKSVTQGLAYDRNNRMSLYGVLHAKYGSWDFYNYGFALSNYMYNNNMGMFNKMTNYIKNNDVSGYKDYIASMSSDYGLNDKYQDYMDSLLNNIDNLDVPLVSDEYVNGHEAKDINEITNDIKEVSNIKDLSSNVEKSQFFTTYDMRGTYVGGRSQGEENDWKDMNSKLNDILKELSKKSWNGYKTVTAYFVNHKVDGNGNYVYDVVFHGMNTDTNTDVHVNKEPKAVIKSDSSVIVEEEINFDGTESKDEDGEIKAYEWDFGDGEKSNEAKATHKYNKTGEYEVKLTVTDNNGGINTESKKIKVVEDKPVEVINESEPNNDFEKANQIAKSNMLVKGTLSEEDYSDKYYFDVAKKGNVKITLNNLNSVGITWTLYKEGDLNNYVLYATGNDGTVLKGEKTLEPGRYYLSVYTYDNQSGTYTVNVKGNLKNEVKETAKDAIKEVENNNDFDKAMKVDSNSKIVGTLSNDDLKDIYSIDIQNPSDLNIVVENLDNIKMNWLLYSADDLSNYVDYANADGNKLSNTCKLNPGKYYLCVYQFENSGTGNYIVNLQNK

Interstitial collagenase [2] = target: T1, Interstitial collagenase; experiment: Inhibition of human skin fibroblast Collagenase at pH 7.5
[3] = target: T3, Angiotensin-converting enzyme (Oryctolagus cuniculus, UniProt P12822); experiment: Inhibitory activity against Angiotensin I converting enzyme
T3 sequence (P12822 whole entry): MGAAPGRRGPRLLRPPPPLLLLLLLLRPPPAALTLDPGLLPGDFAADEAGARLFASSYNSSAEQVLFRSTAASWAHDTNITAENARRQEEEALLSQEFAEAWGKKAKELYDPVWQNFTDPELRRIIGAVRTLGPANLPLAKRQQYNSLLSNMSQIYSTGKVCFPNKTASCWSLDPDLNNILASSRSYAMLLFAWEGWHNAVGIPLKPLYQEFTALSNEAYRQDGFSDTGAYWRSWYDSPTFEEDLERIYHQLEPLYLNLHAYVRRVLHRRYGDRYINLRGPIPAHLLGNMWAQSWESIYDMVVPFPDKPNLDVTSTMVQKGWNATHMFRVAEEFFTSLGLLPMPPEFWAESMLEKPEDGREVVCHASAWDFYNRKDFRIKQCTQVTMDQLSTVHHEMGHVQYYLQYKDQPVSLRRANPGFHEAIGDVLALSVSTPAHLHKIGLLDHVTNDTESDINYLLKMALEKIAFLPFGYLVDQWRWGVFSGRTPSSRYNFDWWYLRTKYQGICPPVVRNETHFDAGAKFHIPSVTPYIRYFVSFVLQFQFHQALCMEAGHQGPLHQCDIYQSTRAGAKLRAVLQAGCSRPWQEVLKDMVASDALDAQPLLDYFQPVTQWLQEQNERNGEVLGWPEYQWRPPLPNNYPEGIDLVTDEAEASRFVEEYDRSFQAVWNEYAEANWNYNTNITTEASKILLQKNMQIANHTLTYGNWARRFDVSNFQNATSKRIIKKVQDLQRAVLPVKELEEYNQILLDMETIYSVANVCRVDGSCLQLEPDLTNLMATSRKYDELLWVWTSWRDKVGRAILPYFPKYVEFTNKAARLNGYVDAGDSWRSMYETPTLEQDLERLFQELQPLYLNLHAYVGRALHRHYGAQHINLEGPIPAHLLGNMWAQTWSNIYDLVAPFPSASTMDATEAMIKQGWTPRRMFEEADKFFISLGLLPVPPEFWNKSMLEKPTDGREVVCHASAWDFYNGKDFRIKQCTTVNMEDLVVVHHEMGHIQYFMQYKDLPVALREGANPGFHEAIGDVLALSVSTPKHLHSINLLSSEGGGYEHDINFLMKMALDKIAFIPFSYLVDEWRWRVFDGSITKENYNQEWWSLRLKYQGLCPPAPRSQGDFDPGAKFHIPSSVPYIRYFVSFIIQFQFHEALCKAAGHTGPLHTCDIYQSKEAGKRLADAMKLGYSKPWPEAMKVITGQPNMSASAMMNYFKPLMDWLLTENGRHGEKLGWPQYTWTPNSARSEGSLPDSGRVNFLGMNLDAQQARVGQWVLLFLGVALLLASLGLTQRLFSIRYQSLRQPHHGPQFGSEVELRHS

Structure (SMILES)	Ki (Interstitial collagenase [1])	also measured
CCOP(=O)(O)N[C@H](C(=O)NC(Cc1ccc(OC)cc1)C(=O)NC)[C@@H](C)CC (some centres undefined)	31 µM	–
CCOP(=O)(O)N[C@H](C(=O)NC(Cc1c[nH]c2ccccc12)C(=O)NC)[C@@H](C)CC (some centres undefined)	1.5 µM	Ki (Collagenase ColA): > 5000 µM; Ki (Interstitial collagenase [2]): 0.9 µM
CCOP(=O)(O)N[C@H](C(=O)NC(Cc1ccc(OCc2ccccc2)cc1)C(=O)NC)[C@@H](C)CC (some centres undefined)	18 µM	–
CCOP(=O)(O)N[C@H](C(=O)NC(Cc1ccc(OCc2ccccc2)cc1)C(=O)NCC(=O)O)[C@@H](C)CC (some centres undefined)	6.7 µM	Ki [3]: 0.2 µM; Ki (Collagenase ColA): > 5 µM
CCOP(=O)(O)N[C@H](C(=O)N[C@@H](Cc1ccc(OCC(=O)NCc2ccccc2)cc1)C(=O)NCC(=O)O)[C@@H](C)CC	16 µM	–
CCOP(=O)(O)N[C@H](C(=O)N[C@@H](Cc1ccc(OCc2cc(Cl)cc(Cl)c2)cc1)C(=O)NCC(=O)O)[C@@H](C)CC	5.7 µM	Ki (Interstitial collagenase [2]): 13 µM
CCOP(=O)(O)N[C@H](C(=O)NC(Cc1ccc(OC2CCCCO2)cc1)C(=O)NCC(=O)O)[C@@H](C)CC (some centres undefined)	25 µM	–
CCOP(=O)(O)N[C@H](C(=O)N[C@@H](Cc1ccc(OCC(=O)O)cc1)C(=O)NCC(=O)O)[C@@H](C)CC	32 µM	–
CCOP(=O)(O)N[C@H](C(=O)N[C@@H](Cc1ccc(OCC(=O)N[C@@H](CCCCN)C(=O)O)cc1)C(=O)NCC(=O)O)[C@@H](C)CC	50 µM	–
CCOP(=O)(O)N[C@H](C(=O)N[C@@H](Cc1ccc(OCC(=O)N(Cc2ccccc2)Cc2ccccc2)cc1)C(=O)NCC(=O)O)[C@@H](C)CC	27 µM	–
CCOP(=O)(O)N[C@H](C(=O)N[C@@H](Cc1ccc(OCc2ccccc2)cc1)C(=O)N[C@@H](Cc1ccccc1)C(=O)O)[C@@H](C)CC	120 µM	–
CCOP(=O)(O)N[C@H](C(=O)N[C@@H](Cc1ccc(O)cc1)C(=O)NCC(=O)O)[C@@H](C)CC	22 µM	–
CCOP(=O)(O)N[C@H](C(=O)N[C@@H](Cc1c[nH]c2ccccc12)C(=O)NCC(=O)O)[C@@H](C)CC	13 µM	–
CCOP(=O)(O)N[C@H](C(=O)N[C@@H](C)C(=O)NCC(=O)O)[C@@H](C)CC	130 µM	Ki (Interstitial collagenase [2]): 147 µM
CCOP(=O)(O)N[C@@H](CC(C)C)C(=O)N[C@@H](C)C(=O)NCC(=O)O	140 µM	–
CCOP(=O)(O)N[C@H](C(=O)N[C@@H](CC(C)C)C(=O)NCC(=O)O)[C@@H](C)CC	49 µM	–
CCOP(=O)(O)N[C@H](C(=O)N[C@@H](C)C(=O)NCC(=O)N[C@@H](CC(C)C)C(=O)O)[C@@H](C)CC	240 µM	–
CCOP(=O)(O)N[C@H](C(=O)N[C@@H](Cc1ccccc1)C(=O)NCC(=O)O)[C@@H](C)CC	29 µM	–
CCOP(=O)(O)N[C@H](C(=O)N[C@@H](Cc1ccc(N)cc1)C(=O)NCC(=O)O)[C@@H](C)CC	19 µM	–
CCOP(=O)(O)N[C@H](C(=O)N[C@@H](C)C(=O)NCC(=O)N[C@@H](CCC(=O)O)C(=O)N[C@@H](CCCN=C(N)N)C(=O)NCC(=O)O)[C@@H](C)CC (X1-AGERG-OH)	403 µM	–
CCOP(=O)(O)N[C@H](C(=O)N[C@@H](C)C(=O)NCC(=O)N[C@@H](CCC(=O)O)C(=O)N[C@@H](CCCNC(=N)N[N+](=O)[O-])C(=O)NCC(=O)O)[C@@H](C)CC (X1-AGE[Arg(NO2)]G-OH)	270 µM	–
CCOP(=O)(O)N[C@H](C(=O)N[C@@H](C)C(=O)NCC(=O)N[C@@H](CCC(N)=O)C(=O)N[C@@H](CCCNC(=N)N)C(=O)NCC(=O)O)[C@@H](C)CC (X1-AGQRG-OH)	460 µM	–
CCOP(=O)(O)N[C@H](C(=O)N[C@@H](C)C(=O)NCC(=O)N[C@@H](CCC(N)=O)C(=O)N[C@@H](CCCNC(=N)N[N+](=O)[O-])C(=O)O)[C@@H](C)CC (X1-AGQ[Arg(NO2)]-OH)	1900 µM	–

— ChEMBL document CHEMBL1125066, “Phosphoramidate peptide inhibitors of human skin fibroblast collagenase” (J Med Chem, 1990)
